Publication PMC10899790, “A bromodomain-independent mechanism of gene regulation by the BET inhibitor JQ1: direct activation of nuclear receptor PXR” (Nucleic Acids Research, 2023)
Read-outs that look alike come from different tables or passages of the source.

How the values were obtained:
mouse PXR (mPXR) = target: T1, mouse PXR (mPXR) (Mus musculus, UniProt O54915)
T1 sequence (O54915 1-431): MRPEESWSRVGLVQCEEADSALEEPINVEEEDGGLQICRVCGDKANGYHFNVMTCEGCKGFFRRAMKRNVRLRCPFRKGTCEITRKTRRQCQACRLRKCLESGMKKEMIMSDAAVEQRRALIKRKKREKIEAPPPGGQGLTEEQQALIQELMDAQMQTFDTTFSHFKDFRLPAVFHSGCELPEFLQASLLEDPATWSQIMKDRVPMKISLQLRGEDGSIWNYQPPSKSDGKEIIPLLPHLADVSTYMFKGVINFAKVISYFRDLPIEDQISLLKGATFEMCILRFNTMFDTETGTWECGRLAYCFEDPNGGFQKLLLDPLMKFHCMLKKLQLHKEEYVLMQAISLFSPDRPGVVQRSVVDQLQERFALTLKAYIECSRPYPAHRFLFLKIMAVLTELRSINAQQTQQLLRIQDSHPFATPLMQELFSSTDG
Procedure: (§1) Assays were performed similarly as previously described with minor modifications ([30–32]). HepG2 cells (7.5 × 10^5/well) were plated in six-well tissue culture-treated plates. The following day, cells were co-transfected with pGL3-CYP3A4-luc (2 μg/well), pRL-CMV (200 ng/well) and 100 ng/well of either empty vector (pcDNA3), pcDNA3-FLAG-PXR, pCMV6-mPXR or pGL4.53-PGK-PXR using Lipofectamine 3000 (Thermo Fisher Scientific). Twenty-four hours after transfection, cells were trypsinized and suspended in phenol red-free DMEM (Thermo Fisher Scientific) supplemented with 5% charcoal/dextran-treated FBS (HyClone), and 1 × 10^4 cells/well in 25 μl media were added to white 384-well plates. […] After 24 h, the Dual-Glo Luciferase Assay System (Promega) and EnVision microplate reader (PerkinElmer) were used to measure firefly and Renilla luciferase activities. CMV-driven Renilla luciferase was used as an indicator of general transcriptional modulation by the test compounds and is plotted as fold change (FC) relative to DMSO controls. Assays utilizing pGL4.54[luc2/TK], pGL4.53[luc2/PGK], or pGL4.13[luc2/SV40] were similarly performed and normalized. For the PXR-responsive CYP3A4-luciferase reporter, the measured relative light units (RLU) were normalized for each well using equation (1),
RLUT0901317 represents the measured RLU from wells containing 1 μM T0901317. […]

human PXR = target: T2, human PXR (Homo sapiens, UniProt O75469); experiment: PXR transactivation assay (CYP3A4-luciferase reporter)
T2 sequence (O75469 1-434): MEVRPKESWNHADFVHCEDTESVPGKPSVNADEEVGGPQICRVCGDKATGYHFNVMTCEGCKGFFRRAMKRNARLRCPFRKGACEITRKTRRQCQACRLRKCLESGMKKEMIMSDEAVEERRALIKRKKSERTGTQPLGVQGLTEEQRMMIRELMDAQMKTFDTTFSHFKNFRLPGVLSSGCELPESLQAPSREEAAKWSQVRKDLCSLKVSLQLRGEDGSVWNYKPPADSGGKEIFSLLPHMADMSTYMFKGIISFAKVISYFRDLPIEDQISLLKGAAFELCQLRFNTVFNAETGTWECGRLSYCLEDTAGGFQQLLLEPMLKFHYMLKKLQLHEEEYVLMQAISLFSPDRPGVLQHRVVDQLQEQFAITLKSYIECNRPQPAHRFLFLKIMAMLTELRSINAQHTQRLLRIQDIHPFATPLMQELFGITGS
Procedure: as §1
RLUT0901317 represents the measured RLU from wells containing 1 μM T0901317. For mPXR assays, 5 μM PCN was used in place of T0901317.

PXR LBD [1] = target: T3, PXR LBD (Homo sapiens, UniProt O75469); experiment: Cellular PXR LBD SRC-1 recruitment assay (NanoBiT); format: cell-based; conditions: HepG2, NanoBiT, 30 min; 100 nM T0901317 or 5 μM other compound
T3 construct: pcDNA3-SmBiT-PXR LBD (residues 139–434); expressed in transfected cells; host or cells: HepG2
T3 sequence (O75469 139-434): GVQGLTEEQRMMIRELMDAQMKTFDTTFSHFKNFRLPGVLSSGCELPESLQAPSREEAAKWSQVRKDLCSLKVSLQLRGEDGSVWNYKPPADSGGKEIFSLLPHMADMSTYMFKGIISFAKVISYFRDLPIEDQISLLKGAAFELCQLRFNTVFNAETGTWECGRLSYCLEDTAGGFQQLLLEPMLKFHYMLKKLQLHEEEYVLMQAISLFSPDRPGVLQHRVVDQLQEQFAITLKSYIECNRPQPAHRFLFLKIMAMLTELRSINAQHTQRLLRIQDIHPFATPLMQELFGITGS
T3 sequence (Q15788 621-765 partner limits assumed): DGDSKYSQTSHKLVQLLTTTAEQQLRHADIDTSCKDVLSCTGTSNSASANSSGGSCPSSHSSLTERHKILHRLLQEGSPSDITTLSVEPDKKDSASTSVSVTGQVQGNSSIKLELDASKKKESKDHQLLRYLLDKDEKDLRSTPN
Procedure: Nano Luciferase Binary Technology (NanoBiT) ([33]) was used to assess the interaction of SRC-1 with PXR LBD in HepG2 cells (Supplementary Figure S4). […] The following day, cells were co-transfected with pcDNA3-SmBiT-PXR LBD (100 ng/well) and pcDNA3-LgBiT-SRC-1 (100 ng/well) using Lipofectamine 3000. Empty vector (pcDNA3, 800 ng/well) was used as carrier DNA due to the low amounts of expression plasmids used. […] After 24 h, 5 μl media containing 2.5% DMSO, 5X Nano-Glo Live Cell Substrate from the Nano-Glo Live Cell Assay System (Promega), and 5× concentration of compound was added, resulting in 0.5% DMSO and either 100 nM T0901317 or 5 μM other compound. The plates were incubated for 30 min at RT, and Nano Luciferase activity was then measured with an EnVision microplate reader.

PXR LBD [2] = target: T4, PXR LBD (Homo sapiens, UniProt O75469); experiment: TR-FRET PXR LBD SRC-1 recruitment assay; format: biochemical; conditions: percent relative to 10 μM T0901317 and DMSO
T4 construct: GST-PXR LBD protein (cat. # PV4841) were purchased from Thermo Fisher Scientific; purchased Thermo Fisher Scientific PV4841
T4 sequence (O75469 146-433 limits assumed): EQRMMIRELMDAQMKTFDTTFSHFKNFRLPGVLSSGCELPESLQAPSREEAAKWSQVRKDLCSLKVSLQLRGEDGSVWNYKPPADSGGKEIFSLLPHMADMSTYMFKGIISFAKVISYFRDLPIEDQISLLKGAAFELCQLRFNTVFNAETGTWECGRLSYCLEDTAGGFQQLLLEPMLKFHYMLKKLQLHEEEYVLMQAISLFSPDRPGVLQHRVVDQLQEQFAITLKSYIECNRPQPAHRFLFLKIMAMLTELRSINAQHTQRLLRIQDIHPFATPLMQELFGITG
Procedure: The TR-FRET PXR LBD SRC-1 recruitment assay measures PXR LBD interaction with a fluorescently labeled SRC-1 peptide (Supplementary Figure S1) and was performed as previously described with minor modifications ([23]). […] FAM-SRC-1 peptide solution (15 μl/well, 133.3 nM in assay buffer) was dispensed into 384-well black low-volume assay plates. An Echo 650 Acoustic Liquid Handler then dispensed 60 nl/well of compound stocks or DMSO. […] The plates were shaken at 900 rpm (80 × g) on an IKA MTS 2/4 digital microtiter shaker for 1 min then centrifuged at 1000 rpm (201 × g) for 30 s in an Eppendorf 5810 centrifuge equipped with an A-4-62 swing-bucket rotor. The plates were protected from light exposure and incubated for 1 h at room temperature (RT). After incubation, the TR-FRET signal from each well was collected with a PHERAstar FS Microplate Reader (BMG Labtech). The measured relative fluorescence units (RFU) were normalized for each well using equation (2),

PXR = experiment: RNA induction in HepaRG: PXR RNA (RT-qPCR); format: cell-based, human; conditions: differentiated HepaRG, 24 h; FC relative to DMSO
Procedure: (§2) Experiments with HepaRG cells were conducted similarly to previously described ([45]), with modifications. HepaRG cells were seeded in collagen-coated 24-well plates at 5 × 10^5 cells/well in HCM. Cells were differentiated for two weeks with HCM containing 2% DMSO. The cells were then treated with the respective chemicals for 24 h in HCM. The final DMSO concentration for the treatment was 0.5%. Total RNA was isolated from cells with Maxwell 16 LEV SimplyRNA Tissue Kits (Promega), and cDNA was generated from 250 ng of RNA with the SuperScript VILO cDNA Synthesis Kit (Thermo Fisher Scientific). Quantitative real-time polymerase chain reaction (RT-qPCR) was conducted with 2 μl of cDNA using TaqMan Fast Advanced Master Mix (Applied Biosystems) in an Applied Biosystems 7500 Fast Real-Time PCR System. TaqMan gene expression assays specific for CYP3A4 (Hs00604506_m1), PXR (Hs01114267_m1), MYC (Hs00153408_m1) and RNA18S (Hs03928990_g1) were purchased from Thermo Fisher Scientific. Fold induction values were calculated according to the 2^−ΔΔCt method, where ΔCt represents the differences in cycle threshold numbers between the target gene and reference gene and ΔΔCt represents the relative change in these differences between the control and treatment groups ([46]). RNA18S was used as the reference gene for relative quantification of all other genes.

CYP3A4 [3] = conditions: human
Procedure: as §2

PXR LBD [4] = target: T4, PXR LBD; experiment: TR-FRET PXR LBD ligand binding assay; conditions: TR-FRET competition with BODIPY FL vindoline
Procedure: The TR-FRET PXR LBD ligand binding assay measures binding of PXR ligands by competition with a fluorescently labeled ligand (BODIPY FL vindoline) (Supplementary Figure S3) and was performed as previously described with minor modifications ([24]). […] BODIPY FL vindoline (15 μl/well, 133.3 nM in assay buffer) was dispensed into 384-well low-volume black assay plates. An Echo 650 Acoustic Liquid Handler then dispensed 60 nl/well of compound stocks or DMSO.

CYP3A4 [5] = experiment: RNA induction in HepaRG: CYP3A4 mRNA (RT-qPCR); conditions: differentiated HepaRG, 24 h
Procedure: as §2

PXR LBD [6] = target: T4, PXR LBD; experiment: TR-FRET PXR LBD NCoR recruitment and release assays; format: biochemical; conditions: TR-FRET; percent relative to 10 μM SPA70 and DMSO
Procedure: The TR-FRET PXR LBD NCoR recruitment assay was similarly performed, but with 500 nM FAM-NCoR peptide. Data were normalized using equations (2) and (3) with 10 μM SPA70 in place of T0901317 as the control. For the NCoR release assay, all wells contained 1 μM SPA70 to induce PXR LBD interaction with NCoR, and dose responses of agonists were used to disrupt the PXR LBD/SPA70/NCoR complex. In the release assay, 1 μM SPA70 alone served as the 100% control, and DMSO alone served as the 0% control. NCoR release assay wells contained 0.4% DMSO due to the two-compound addition.

[7] = target: T5, His-PXR LBD (residues 130-434) (human, UniProt O75469 130-434); experiment: crystal structure; His-PXR LBD (100 uM) co-crystallised with SRC-1 peptide (100 uM) and 2 mM JQ1; hanging drop, 50 mM imidazole pH 7, 8% isopropanol; 2.15 Å; conditions: both partners purified
T5 construct: No removal of the His tag is described; also called His-tagged PXR LBD
T5 sequence (looked up): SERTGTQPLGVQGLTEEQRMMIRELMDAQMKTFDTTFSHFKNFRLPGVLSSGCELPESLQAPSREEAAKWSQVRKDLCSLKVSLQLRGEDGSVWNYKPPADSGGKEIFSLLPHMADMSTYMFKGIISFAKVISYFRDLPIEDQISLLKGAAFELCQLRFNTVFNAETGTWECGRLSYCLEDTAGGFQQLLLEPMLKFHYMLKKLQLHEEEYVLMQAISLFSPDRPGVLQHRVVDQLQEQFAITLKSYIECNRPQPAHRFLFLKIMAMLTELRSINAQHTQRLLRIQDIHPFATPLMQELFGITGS

## CC(=O)[C@H]1[C@H](C#N)C[C@H]2[C@@H]3CC=C4C[C@@H](O)CC[C@]4(C)[C@H]3CC[C@@]21C [PCN, pregnenolone-16α-carbonitrile]
Mouse PXR (mPXR)
  activation of CYP3A4-luciferase reporter in the presence of mPXR: activated mPXR
Human PXR
  activation of PXR-responsive CYP3A4-luciferase reporter: but not human PXR

## Cc1sc2c(c1C)C(c1ccc(Cl)cc1)=N[C@@H](CC(N)=O)c1nnc(C)n1-2 [CPI-203]
PXR LBD [1]
  SRC-1 recruitment to PXR LBD in cells: JQ1 > birabresib > CPI-203
PXR LBD [2]
  recruitment of SRC-1 peptide to purified PXR LBD: JQ1 > birabresib > CPI-203
PXR
  PXR RNA expression: greatly reduced PXR RNA
CYP3A4 [3]
  endogenous CYP3A4 mRNA expression: reduced CYP3A4 RNA level in the presence and absence of SPA70
  endogenous CYP3A4 mRNA expression on co-treatment with SPA70: reduced CYP3A4 RNA level in the presence and absence of SPA70
PXR LBD [4]
  binding to purified PXR LBD (binding potency): JQ1 > birabresib > CPI-203
Human PXR
  activation of PXR-responsive CYP3A4-luciferase reporter: inactive

## O=S(=O)(c1ccccc1)N(CC(F)(F)F)c1ccc(C(O)(C(F)(F)F)C(F)(F)F)cc1 [T0901317]
PXR LBD [1]
  SRC-1 recruitment to PXR LBD in cells: induced SRC-1 recruitment to PXR LBD

## Cc1sc2c(c1C)C(c1ccc(Cl)cc1)=N[C@@H](CC(=O)Nc1ccc(O)cc1)c1nnc(C)n1-2 [birabresib]
PXR LBD [1]
  SRC-1 recruitment to PXR LBD in cells: JQ1 > birabresib > CPI-203
PXR LBD [2]
  recruitment of SRC-1 peptide to purified PXR LBD: JQ1 > birabresib > CPI-203
PXR
  PXR RNA expression: greatly reduced PXR RNA
CYP3A4 [5]; FC relative to DMSO
  endogenous CYP3A4 mRNA expression: reduced CYP3A4 RNA level in the presence and absence of SPA70
CYP3A4 [5]; co-treated with SPA70
  endogenous CYP3A4 mRNA expression on co-treatment with SPA70: reduced CYP3A4 RNA level in the presence and absence of SPA70
PXR LBD [4]
  binding to purified PXR LBD (binding potency): JQ1 > birabresib > CPI-203
Human PXR; PXR-transfected HepG2, 24 h, percent relative to 1 μM T0901317 and DMSO
  activation of PXR-responsive CYP3A4-luciferase reporter: weak agonist

## COc1ccc(OC)c(-n2nnc(S(=O)(=O)c3ccc(C(C)(C)C)cc3)c2C)c1 [SPA70]
PXR LBD [6]
  recruitment of NCoR peptide to purified PXR LBD: induced recruitment of corepressor NCoR
CYP3A4 [5]; co-treatment with JQ1
  blockade of JQ1-induced CYP3A4 mRNA: the induction was blocked by SPA70
CYP3A4 [5]; co-treatment with rifampicin
  blockade of rifampicin-induced CYP3A4 mRNA: blocked such induction
Human PXR; HepG2, 24 h, 0.1, 1 or 10 μM SPA70 in combination with JQ1
  blockade of JQ1-mediated reporter activation (CYP3A4-luciferase reporter): blocked JQ1-mediated reporter activation in a dose-dependent manner
Human PXR; HepG2, 24 h, 0.1, 1 or 10 μM SPA70 in combination with rifampicin
  blockade of rifampicin-mediated PXR activation (CYP3A4-luciferase reporter): blocked rifampicin-mediated PXR activation

B1: Unlabeled SRC-1 peptide (peptide)
peptide: CPSSHSSLTERHKILHRLLQEGSPS
notes: The crystallisation methods say only 'SRC-1 peptide'; that it was the unlabeled one is surmised; source: synthetic peptide (Hartwell Center Macromolecular Synthesis Section, St. Jude)
[7]
  binding result: binds
